For this series, the system named is rodent carcinogenicity bioassays, tumor incidence. Kind of series: CCRIS carcinogenicity studies. The procedure, abridged: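 NCI-built, expert-reviewed records of carcinogenicity and related test outcomes (mutagenicity, tumor promotion/inhibition) compiled from published and report sources, historical span 1985-2011, not updated.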

SMILES strings stand for the structures. Active and inactive are the calls of the source. No rule for the calls is given here.

Take `c1ccoc1`: the carcinogen call (Species: MOUSE, Strain/Sex: B6C3F1/FEMALE, Route: GAVAGE, Dose: 0, 8, 15 MG/KG IN CORN OIL 5 D/WK FOR 104 WK (STUDY DURATION: 105 WK), Dose: 0, 8, 15 MG/KG IN CORN OIL 5 D/WK FOR 104 WK (STUDY DURATION: 105 WK), Tumor Site: Type of Lesion: ADRENAL MEDULLA: BENIGN PHEOCHROMOCYTOMA, LIVER: HEPATOCELLULAR ADENOMA, HEPATOCELLULAR CARCINOMA) was “active; positive”; the carcinogen call (Species: MOUSE, Strain/Sex: B6C3F1/MALE, Route: GAVAGE, Dose: 0, 8, 15 MG/KG IN CORN OIL 5 D/WK FOR 104 WK (STUDY DURATION: 105 WK), Dose: 0, 8, 15 MG/KG IN CORN OIL 5 D/WK FOR 104 WK (STUDY DURATION: 105 WK), Tumor Site: Type of Lesion: ADRENAL MEDULLA: BENIGN PHEOCHROMOCYTOMA, LIVER: HEPATOCELLULAR ADENOMA, HEPATOCELLULAR CARCINOMA) is “active; positive”; the carcinogen call (Species: MOUSE, Strain/Sex: B6C3F1/MALE, Route: INTRAPERITONEAL, Dose: 0, 200 MG/KG BW ONCE EACH ON POSTNATAL DAYS 3, 6, 9, 12, 15 AND 18 (STUDY DURATION: 95 WK), Tumor Site: Type of Lesion: LIVER: ADENOMA OR CARCINOMA) is “active; positive”; the carcinogen call (Species: MOUSE, Strain/Sex: B6C3F1/MALE, Route: INTRAPERITONEAL, Dose: 0, 400 MG/KG BW ONCE ON POSTNATAL DAY 15 (STUDY DURATION: 95 WK)) is “inactive; negative”; the carcinogen call (Species: RAT, Strain/Sex: B6C3F1/FEMALE, Route: GAVAGE, Dose: 0, 2, 4, 8 MG/KG IN CORN OIL 5 D/WK FOR 103 WK (STUDY DURATION: 104 WK), Dose: 0, 2, 4, 8 MG/KG IN CORN OIL 5 D/WK FOR 103 WK (STUDY DURATION: 104 WK), Tumor Site: Type of Lesion: LIVER: CHOLANGIOCARCINOMA, HEPATOCELLULAR ADENOMA OR CARCINOMA, HEMATOPOIETIC SYSTEM: MONONUCLEAR CELL LEUKEMIA) was “active; positive”; the carcinogen call (Species: RAT, Strain/Sex: F344/MALE, Route: GAVAGE, Dose: 0, 2, 4, 8 MG/KG IN CORN OIL 5 D/WK FOR 103 WK (STUDY DURATION: 104 WK), Dose: 0, 2, 4, 8 MG/KG IN CORN OIL 5 D/WK FOR 103 WK (STUDY DURATION: 104 WK), Tumor Site: Type of Lesion: LIVER:CHOLANGIOCARCINOMA, HEPATOCELLULAR ADENOMA, HEPATOCELLULAR CARCINOMA, HEMATOPOIETIC SYSTEM: MONONUCLEAR CELL LEUKE) is “active; positive”.
On to `C#C[C@]1(O)CC[C@H]2[C@@H]3CCC4=C(CCC(=O)C4)[C@H]3CC[C@@]21C`, for which the carcinogen call reads like this: (Species: MOUSE, Route: ORAL, Tumor Site: Type of Lesion: MAMMARY GLAND, PITUITARY GLAND) “active; positive”; (Species: RAT, Route: ORAL, Tumor Site: Type of Lesion: LIVER, MAMMARY GLAND, PITUITARY GLAND, Tumor Site: Type of Lesion: LIVER, MAMMARY GLAND, PITUITARY GLAND) “active; positive”.
`Cc1c2ccccc2c(CO)c2ccc3ccccc3c12`: the carcinogen call (Species: MOUSE, Strain/Sex: B6C3F1/MALE, Route: INTRAPERITONEAL, Dose: 0, 0.0025, 0.01, 0.03 UMOL/G IN 10 µL/G TRIOCTANOIN D 12 OF AGE (STUDY DURATION: 10 MO), Dose: 0, 0.0025, 0.01, 0.03 UMOL/G IN 10 µL/G TRIOCTANOIN D 12 OF AGE (STUDY DURATION: 10 MO), Tumor Site: Type of Lesion: LIVER: HEPATOMA) was “active; positive”; the carcinogen call (Species: MOUSE, Strain/Sex: B6C3F1/MALE, Route: INTRAPERITONEAL, Dose: 0, 0.0025 UMOL/G IN 10 µL TRIOCTANOIN ON D 12, 16, 20 AND 24 OF AGE (STUDY DURATION: 12 MO), Tumor Site: Type of Lesion: LIVER: HEPATOMA) was “active; positive”; the carcinogen call (Species: MOUSE, Strain/Sex: B6C3F1/MALE, Route: INTRAPERITONEAL, Dose: 0, 0.0075, 0.015, 0.03 UMOL/G IN 10 µL/G TRIOCTANOIN ONCE ON D 12 OF AGE (STUDY DURATION: 10 MO), Dose: 0, 0.0075, 0.015, 0.03 UMOL/G IN 10 µL/G TRIOCTANOIN ONCE ON D 12 OF AGE (STUDY DURATION: 10 MO), Tumor Site: Type of Lesion: LIVER: HEPATOMA) is “active; positive”; the carcinogen call (Species: MOUSE, Strain/Sex: B6C3F1/MALE, Route: INTRAPERITONEAL, Dose: 0, 0.01, 0.03, 0.06, UMOL/G IN 5 µL/G DMSO ONCE ON D 12 AGE (STUDY DURATION: 10 MO), Dose: 0, 0.01, 0.03, 0.06, UMOL/G IN 5 µL/G DMSO ONCE ON D 12 AGE (STUDY DURATION: 10 MO), Tumor Site: Type of Lesion: LIVER: HEPATOMA) was “active; positive”; the carcinogen call (Species: MOUSE, Strain/Sex: B6C3F1/MALE, Route: INTRAPERITONEAL, Dose: 0, 0.03, 0.08, 0.25 UMOL/G IN 10 µL/G TRIOCTANOIN ONCE AT 12 D OF AGE (STUDY DURATION: 8.5 MO), Dose: 0, 0.03, 0.08, 0.25 UMOL/G IN 10 µL/G TRIOCTANOIN ONCE AT 12 D OF AGE (STUDY DURATION: 8.5 MO), Tumor Site: Type of Lesion: LIVER: HEPATOMA) is “active; positive”; the carcinogen call (Species: MOUSE, Strain/Sex: STRAIN-A/FEMALE, Route: INTRAPERITONEAL, Dose: 0, 0.01, 0.03, 0.06 UMOL/G IN 5 µL DMSO/G ONCE AT 4-6 WK OF AGE (STUDY DURATION: 6 MO), Dose: 0, 0.01, 0.03, 0.06 UMOL/G IN 5 µL DMSO/G ONCE AT 4-6 WK OF AGE (STUDY DURATION: 6 MO), Tumor Site: Type of Lesion: LUNG: ADENOMA) is “active; positive”. The carcinogen call (Species: RAT, Strain/Sex: SPRAGUE-DAWLEY/FEMALE, Route: SUBCUTANEOUS, Dose: 0, 0.2 UMOL 3/WK FOR 20 DOSES (STUDY DURATION: 52 WK), Tumor Site: Type of Lesion: INJECTION SITE: SARCOMA) was “active; positive”; the carcinogen call (Species: RAT, Strain/Sex: SPRAGUE-DAWLEY/FEMALE, Route: SUBCUTANEOUS, Dose: 0, 2 UMOL IN 0.25 ML TRIOCTANOIN INTO LEFT HIND LEG AT ABOUT 40 D OF AGE FOLLOWED BY A SECOND DOSE 6 D LATER (STUDY DURA) was “inactive; negative”; the carcinogen call (Species: RAT, Strain/Sex: SPRAGUE-DAWLEY/FEMALE, Route: SUBCUTANEOUS, Dose: 0, 2 UMOL IN 0.25 ML TRIOCTANOIN ONCE INTO LEFT HIND LEG AT ABOUT 40 D OF AGE (STUDY DURATION: 16 MO)) was “inactive; negative”.
Consider `Nc1ccc(-n2c3ccccc3c3ccncc32)cc1`, for which the carcinogen call (Species: RAT, Strain/Sex: F344/MALE (30-33/GROUP), FEMALE (28-32/GROUP), Route: ORAL, Dose: 0, 20, 40 PPM IN DIET FOR 85 WK (STUDY DURATION: 85 WK), Dose: 0, 20, 40 PPM IN DIET FOR 85 WK (STUDY DURATION: 85 WK), Tumor Site: Type of Lesion: LIVER: ADENOMA, HEPATOCELLULAR CARCINOMA, COLON: ADENOCARCINOMA, THYROID: FOLLICULAR CELL ADENOMA AND CARCINOMA, MONONUC, Tumor Site: Type of Lesion: LIVER: ADENOMA, HEPATOCELLULAR CARCINOMA, COLON: ADENOCARCINOMA, THYROID: FOLLICULAR CELL ADENOMA AND CARCINOMA, MONONUC) was “active; positive”.
On to `O[C@H]1C=Cc2ccc3cc4ccccc4nc3c2[C@@H]1O`, for which the carcinogen call by setting is: (Species: MOUSE, Strain/Sex: SWISS/FEMALE, Route: INTRAPERITONEAL, Dose: 0, 1.05 UMOL GIVEN AS 150 NMOL IN 5 µL DMSO WITHIN 24 HR OF BIRTH, 300 NMOL IN 10 µL DMSO ON D 8 OF LIFE, AND 600 NMOL I) “inactive; negative”; (Species: MOUSE, Strain/Sex: SWISS/MALE, Route: INTRAPERITONEAL, Dose: 0, 1.05 UMOL GIVEN AS 150 NMOL IN 5 µL DMSO WITHIN 24 HR OF BIRTH, 300 NMOL IN 10 µL DMSO ON D 8 OF LIFE, AND 600 NMOL I) “inactive; negative”.

These data come from PubChem BioAssay AID1259411 (Chemical Carcinogenesis Research Information System (CCRIS), 2018).
